Results taken from patent US11938110B2, “Use of verapamil for the treatment of SARS-Cov-2 induced COVID-19” (priority 2020, dated 2024).
Counter-ions that a name gives are not always drawn.

Columns and labels:
[1] = tested on: COVID-19 patients with hypertension; conditions: oral administration; cited from earlier work
[2] = tested on: SARS-COV-2 (USA-WA1/2020); conditions: Huh7 cells, MOI 0.1, 6.25, 12.5, 25 and 50 uM, compared to DMSO, 48 hours after infection
[3] = tested on: patients with Chronic obstructive pulmonary disease (COPD); conditions: nasal spray

| SMILES | case fatality rate of patients with hypertension [1] | toxicity against Huh7 cells (Huh7 cells) | viral RNA in the supernatant [2] | blood oxygen pressure [3] | correction of blood pH [3] | oxygen saturation after inhalation ([3]; after inhalation) | oxygen saturation before inhalation ([3]; baseline) |
| --- | --- | --- | --- | --- | --- | --- | --- |
| CCOC(=O)C1=C(COCCN)NC(C)=C(C(=O)OC)C1c1ccccc1Cl (stereo not shown) [amlodipine besylate] | distinctly reduced | – | – | – | – | – | – |
| COc1ccc(CCN(C)CCCC(C#N)(c2ccc(OC)c(OC)c2)C(C)C)cc1OC (stereo not shown) [verapamil hydrochloride] | – | no significant toxicity | dose-dependent reduction | improved | improved | 95.75±14.57 | 91.2±12.15 |
